We go through eleven compounds from US9006252B2, “Fused multicyclic compounds as protein kinase inhibitors” (National Health Research Institutes, priority 2008, dated 2015).

Each structure is given as a SMILES string. Where “and” joins values, the source holds several entries; their conditions need not be identical. Equal values may be shown once. Read-outs that look alike come from different tables or passages of the source.

Assay [1] deals with HCT-116 colon tumor xenograft. Briefly: In vivo anticancer efficacy in colon tumor xenograft mice (injected with HCT-116). Details: species or system nude mice. To be noted: for tumor growth suppression (in words): versus VX-680 at 50 mg/kg. How it is done: In vivo anticancer efficacy of the compounds of this invention was assessed using colon tumor xenograft mice (injected with HCT-116), as described in Cancer Research 2004, 64, 4621-4628.
(§1) HCT-116 cells were injected via s.c. in nude mice to form colon tumor xenograft mice. Mice bearing tumors with a size of ˜100 mm^3 were randomly assigned to three groups: a vehicle control group (10 mice), a positive control group (10 mice), and a treatment group (21 mice). Of the treated mice, ten received Compound 3 at a daily dosage of 25 mg/kg via IV injection through the tail veins for 5 days/week for 2 consecutive weeks (days 1-5 and 8-12) and eleven received the same compound at a daily dosage of 50 mg/kg via IV injection through the tail veins for 5 consecutive days (days 1-5). The positive control mice received VX-680 (a known anti-cancer drug) at a daily dosage of 50 mg/kg, also via IV injection through the tail veins for 5 days/week for 2 consecutive weeks (days 1-5 and 8-12).
as §1, with “Compound 4” for “Compound 3”, “of 5 mg/kg and eleven received the same compound at a daily dosage of 15” for “of 25”, “and 8-12).” for “and 8-12) and eleven received the same compound at a daily dosage of 50 mg/kg via IV injection through the tail veins for 5 consecutive days (days 1-5).”, “VX-680” for “VX-680 (a known anti-cancer drug)”

The subject of another assay is HCT-116 cells. Briefly: HCT-116 cell viability, MTS assay. The assay is classed as cell-based. To be noted: Homo sapiens, HCT-116, 96 h, read-out: IC50 values, HCT-116 cell viability. The protocol: HCT-116 cell viability was examined by the MTS assay (Promega, Madison, Wis., USA). 2000 HCT-116 cells in 100 μL McCoy's 5a medium were seeded in each well of a 96-well plate. After 96-h incubation with a test compound, the cells were incubated with 20 μL of a MTS/PMS mixture (MTS/PMS ratio: 20:1) for 2 h at 37° C. in a humidified incubator with 5% CO2 to allow viable cells to convert the tetrazolium salt (MTS) into formazan. The amount/concentration of formazan, which indicates the number of live cells, was determined by measuring the absorbance at 490 nm using a PerkinElmer Victor2 plate reader (PerkinElmer, Shelton, Conn., USA).
A general note: Tetrazolium dyes change colour on reduction, which living cells bring about.

For another assay, the target named is T1, Aurora A (Homo sapiens, UniProt O14965).
T1 construct: GST-tAurora A (123-401aa) fusion protein obtained above; made in house; host or cells: Sf9 insect cells (baculovirus, pBacPAK8)
T1 sequence (O14965 123-401): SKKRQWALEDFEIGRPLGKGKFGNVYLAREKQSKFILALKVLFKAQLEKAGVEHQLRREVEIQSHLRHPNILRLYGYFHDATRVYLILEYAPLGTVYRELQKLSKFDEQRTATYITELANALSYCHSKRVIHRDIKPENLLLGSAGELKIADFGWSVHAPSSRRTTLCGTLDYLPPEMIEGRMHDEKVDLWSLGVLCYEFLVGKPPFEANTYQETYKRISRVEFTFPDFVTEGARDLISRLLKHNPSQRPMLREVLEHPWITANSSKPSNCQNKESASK
Briefly: Aurora Kinase A luminescent kinase assay (Kinase-Glo). It is filed as biochemical. To be noted: IC50 values (concentration of a test compound at which activity of 50% of Aurora A is inhibited), GST-tAurora A (123-401aa) fusion protein. How it is done:
The Aurora A catalytic domain with an N-terminal GST tag was constructed in pBacPAK8 plasmid and expressed in sf9 cells. […] To concentrate GST-tAurora A, buffer was replaced with Tris buffer (100 mM Tris (pH 7.5), 300 mM NaCl, 1 mM EDTA, 4 mM DTT) using Amicon ultra-15 (MWCO:30K, Millipore) to 2.4 mg/ml. After the addition of equal volume of glycerol and 0.04% Triton X-100, the proteins were stored aliquoted at −80° C.
Briefly, a test compound, enzyme, substrate-tetra(LRRWSLG), DTT and ATP were dissolved in Aur buffer (50 mM Tris-HCl pH 7.4, 10 mM NaCl, 10 mM MgCl2, and 100 μg/ml BSA) individually before the assay. […] 5 μM ATP (5 μl), 1 mM DTT (5 μl) and 0.1 mM tetra(LRRWSLG) peptide substrate (5 μl) were added into the reactions of test compounds and GST-tAurora A. The reactions were incubated at 37° C. for 90 min. 50 μl of Kinase-Glo Plus Reagent (V3771, Promega) was added into the reactions, followed by the incubation at 25° C. for 20 min.
Background: Kinase-Glo reads ATP consumption through a luciferase reaction.

As a reminder, the IC50 is the concentration needed to halve the response being measured. In the case of `COc1cc2ncnc(NCCc3ccc(NC(=O)Nc4ccccc4CN(C)C)cc3)c2cc1OC` [Compound 3, 1-{4-[2-(6,7-Dimethoxy-quinazolin-4-ylamino)-ethyl]-phenyl}-3-(2-dimethylaminomethyl-phenyl)-urea], the “tumor size as % of that in the vehicle control group” value in assay [1] (25 mg/kg daily IV, days 1-5 and 8-12, 22nd day post treatment) is given as 35%; in assay [1] (50 mg/kg daily IV, days 1-5, 22nd day post treatment), 36%. For the same compound, the “tumor growth suppression (in words)” value in assay [1] (dosages of 25 and 50 mg/kg IV) is “suppressed tumor growth significantly and better than VX-680”. Also, the IC50 was less than 0.1 µM in the assay with HCT-116 cells (96-h incubation, MTS); < 1 µM and 0.051 to 0.45 µM at Aurora A.
Consider `CN(C)CCCOc1ccc2c(NCCc3ccc(NC(=O)Nc4ccccc4)cc3)ncnc2c1` [Compound 4, 1-(4-{2-[7-(3-Dimethylamino-propoxy)-quinazolin-4-ylamino]-ethyl}-phenyl)-3-phenyl-urea], for which the “tumor size as % of that in the vehicle control group” value stood at 67% in assay [1] (5 mg/kg daily IV, days 1-5 and 8-12, 22nd day post treatment); 37% in assay [1] (15 mg/kg daily IV, days 1-5 and 8-12, 22nd day post treatment). Also, in assay [1] (dosage of 15 mg/kg IV), the “tumor growth suppression (in words)” value is “suppressed tumor growth significantly and better than VX-680”. The IC50 is less than 0.1 µM in the assay on HCT-116 cells (96-h incubation, MTS); < 1 µM and 0.051 to 0.45 µM at Aurora A.
For `COc1cc2ncnc(NCCc3ccc(NC(=O)Nc4cc(F)cc(F)c4)cc3)c2cc1OC` [Compound 244], the concentration for half-maximal inhibition (IC50) with HCT-116 cells (96-h incubation, MTS) is less than 0.1 µM; on Aurora A, 0.001 to 0.05 µM and < 1 µM.
`COc1cc2ncnc(NCCc3ccc(NC(=O)Nc4ccccc4F)cc3)c2cc1OC` [Compound 246]: the IC50 with HCT-116 cells (96-h incubation, MTS) was 0.101 to 0.85 µM; against Aurora A, 0.051 to 0.45 µM and < 1 µM.
For the compound `COc1cc2ncnc(NCCc3ccc(NC(=O)Nc4ccc(F)c(F)c4)cc3)c2cc1OC` [Compound 247], the IC50 was 0.101 to 0.85 µM with HCT-116 cells (96-h incubation, MTS); 0.001 to 0.05 µM and < 1 µM at Aurora A.
`O=C(Nc1ccccc1)Nc1ccc(CCNc2ncnc3ccccc23)cc1` [Compound 248]: the half-inhibitory concentration (IC50) with HCT-116 cells was less than 0.1 µM; at Aurora A, 0.051 to 0.45 µM and < 1 µM.
With `O=C(Nc1ccc(CCNc2ncnc3oc(-c4ccncc4)nc23)cc1)Nc1cccc(F)c1` [Compound 250], the 50% inhibitory concentration (IC50) in the assay on HCT-116 cells (96-h incubation, MTS) was 0.101 to 0.85 µM; against Aurora A, 0.051 to 0.45 µM and < 1 µM.
Turning to `O=C(Nc1ccccc1)Nc1ccc(CCNc2ncnc3cc(N4CCOCC4)ccc23)cc1` [Compound 251], the IC50 with HCT-116 cells (96-h incubation, MTS) was less than 0.1 µM; against Aurora A it was 0.001 to 0.05 µM and < 1 µM.
For `COc1cc2ncnc(NCCc3cnc(NC(=O)Nc4cccc(Br)c4)s3)c2cc1OC` [Compound 252], the IC50 was 0.101 to 0.85 µM with HCT-116 cells (96-h incubation, MTS); 0.001 to 0.05 µM and < 1 µM at Aurora A.
For `O=C(Nc1ccccc1)Nc1ccc(CCNc2ncnc3cc(F)ccc23)cc1` [Compound 253], the 50% inhibitory concentration (IC50) in the assay with HCT-116 cells (96-h incubation, MTS) was less than 0.1 µM; at Aurora A it was 0.051 to 0.45 µM and < 1 µM.
With `Cc1cc(Nc2cc(N3CCN(C)CC3)nc(Sc3ccc(NC(=O)C4CC4)cc3)n2)n[nH]1` [VX-680, reference compound], the “tumor size as % of that in the vehicle control animals” value in assay [1] (50 mg/kg daily IV, days 1-5 and 8-12, 22nd day post treatment) is on record as 50%.
